Measurements published in US20240182525A1, “NOVEL BICYCLIC COMPOUND, OPTICAL ISOMER THEREOF OR PHARMACEUTICALLY ACCEPTABLE SALT THEREOF, USE THEREOF, AND PREPARATION METHOD THEREFOR” (KOREARESEARCH INSTITUTE OF BIOSCIENCE AND BIOTECHNOLOGY, priority 2021, published 2024).

Experiments:
[1] = tested on: Wnt activity (HEK293T-TopFLASH cells); assay: TopFLASH luciferase assay, HEK293T-TopFLASH stable cell line (Wnt3a activity assay); format: cell-based, human; details: 1-50 μM, 24 hours
Description: In order to measure the level of Wnt activity of the compound of Chemical Formula 1-1, TopFLASH luciferase assay was performed on the HEK293T cell line. The TopFLASH luciferase assay was performed by creating a HEK293T-TopFLASH stable cell line with a viral vector made by combining Luciferase (reporter gene) with the TCF7 promoter. HEK293T-TopFLASH cells were cultured in a 96-well plate (1×10^4 cells/well), and the next day, the cells were treated with 1-50 μM of the compound of Chemical Formula 1-1 and confirmed by One-Glo™ (modified luciferin, Pormega, USA) after 24 hours.

[2] = Cytotoxicity assay, MDA-MB-435; format: cell-based; details: human, MDA-MB-435 cells (printed as oral cancer); MDA-MB-435, 48 hours, maximum concentration 100 μM
Description: (§1) To measure the cytotoxicity of the compound represented by Chemical Formula 1 (Chemical Formula 1-1), toxicity was measured in mouse preadipocyte 3T3-L1 cell line, human malignant melanoma A375 cell line, mouse malignant melanoma B16F10 cell line, human oral cancer MDA-MB-435 cell line, mouse breast cancer 4T1 cell line, human breast cancer MCF7 cell line, human brain cancer U87MG cell line, human glioblastoma U373MG cell line, human cervical cancer HeLa cell line, mouse embryonic fibroblast (MEF) cell line, human embryonic kidney HEK293T cell line (Korea Cell Line Bank). First, 1×10^4 cells were divided into 200 μl each in a 96-well plate using Dulbecco's Modified Eagle's Medium (DMEM) supplemented with 10% fetal bovine serum (FBS), […] streptomycin, and 50 U/ml penicillin, while maintaining various cells at 37r in an atmosphere of 5% CO2. The cells were treated with the compound of Chemical Formula 1-1 of the present invention at a maximum concentration of 100 μM and cultured for 48 hours under the same culture conditions. After the incubation, the culture media were removed and the cytotoxicity test results were confirmed (Table 2 and FIG. 3 below).

[3] = Cytotoxicity assay, 3T3-L1; format: cell-based; details: mouse, 3T3-L1 cells (preadipocytes); 3T3-L1, 48 hours, maximum concentration 100 μM
Description: as §1

Cytotoxicity assay, HeLa = format: cell-based; details: human, HeLa cells (cervical cancer), maximum concentration 100 μM
Description: as §1

MC3T3-E1 cells = assay: Alkaline phosphatase (ALP) staining of MC3T3-E1 cells; format: cell-based, mouse; details: 5, 10, and 20 νM, 7 days, FIG. 15
Excerpt: In order to analyze the effect of the compound of Chemical Formula 1 according to the present invention on ALP activity, the morphology of MC3T3-E1 cells according to the treatment with the compound of Chemical Formula 1 according to the present invention was confirmed by alkaline phosphatase (ALP) staining of the MC3T3-E1 cell line.
In the present Example, the effect of Chemical Formula 1-1 on the activity of alkaline phosphatase (ALP), which is one of the representative markers of osteoblast differentiation, was measured. MC3T3-E1 cells, which are mouse osteoblasts, were inoculated into a 96-well plate at a concentration of 5×10^3 cell/well, and incubated overnight in growth media containing alpha-minimum essential media (alpha-MEM, JBI #008-53) supplemented with 10% fetal bovine serum (FBS, Gibco #16000, USA) and 1× antibiotics (Gibco #15240062, USA). As a negative control, an alpha minimum essential medium containing 10% FBS was used. As positive controls, 100 μg/ml of ALP-activating ascorbic acid and 10 mM of β-glycerophosphate were mixed, and the positive controls were exchanged with media added with 5, 10, and 20 νM of Chemical Formula 1-1 on Day 3, and treated for 7 days. After 7 days, the media were discarded, and the cells were washed with PBS, and fixed with 10% formalin for 1 minute. […]

MC3T3-E1 cell line = assay: Cytotoxicity assay in MC3T3-E1 pre-osteoblasts; format: cell-based, mouse; details: concentration range of 50 μM or less, 7 days, FIG. 14
Description: In order to measure the cytotoxicity of the compound represented by Chemical Formula 1 (Chemical Formula 1-1), toxicity was measured in the MC3T3-E1 cell line (Korea Cell Line Bank), which is a pre-osteoblast related to bone formation.
Specifically, a cytotoxicity test was performed to determine the in vivo safety of Chemical Formula 1-1 above. MC3T3-E1 cells, which are mouse osteoblasts, were inoculated into a 96-well plate at a concentration of 5×10^3 cell/well, and incubated overnight in growth media containing alpha-minimum essential media (alpha-MEM, JBI #008-53) supplemented with 10% fetal bovine serum (FBS, Gibco #16000, USA) and 1× antibiotics (Gibco #15240062, USA). […] After incubation, the media were removed, 90 μl of the media and 10 μl of WTS solution were added, and after 1 hour, the absorbance was measured at 450 nm using a microplate reader.

CC(C)CC1NC(=O)C2CCCN2C(=O)C(C(O)C(C)C)NC(=O)CNC(=O)C(C(C)O)NC(=O)C2NC(=O)C(NC(=O)/C=C/c3ccccc3C(O)C(C)O)C(C)OC(=O)C(CC(N)=O)NC(=O)C(NC(=O)C(O)NC1=O)C(O)c1ccc(O)c(c1)Oc1ccc2cc1 (stereo not shown) [Chemical Formula 1-1]
Wnt activity (luciferase values) ([1]; compound alone, FIG. 4): greatly increased | Wnt activity (luciferase values) ([1]; simultaneous treatment with Wnt3a-conditional media (2.5%), FIG. 5): greatly increased | IC50 at 48 h [2]: > 100 µM | IC50 at 48 h [3]: > 100 µM | IC50 at 48 h (Cytotoxicity assay, HeLa): > 100 µM | alkaline phosphatase staining (ALP) positive cells (MC3T3-E1 cells): strongly stained in a concentration-dependent manner | cytotoxicity (MC3T3-E1 cell line): did not exhibit cytotoxicity
